Reference: ChEMBL document CHEMBL1201862, “PubChem BioAssay data set” (2004)
Activity calls are given as the source filed them.

How the values were obtained:
[1] = target: DNA (cytosine-5)-methyltransferase 1 (Homo sapiens, UniProt P26358); assay: DNMT1 methyltransferase inhibitors, confirmation, biochemical, fluorescent molecular beacon (AID 602386); format: functional
[2] = target: T1, Apoptotic protease-activating factor 1 (Homo sapiens, UniProt O14727); format: functional
T1 sequence (O14727 whole entry): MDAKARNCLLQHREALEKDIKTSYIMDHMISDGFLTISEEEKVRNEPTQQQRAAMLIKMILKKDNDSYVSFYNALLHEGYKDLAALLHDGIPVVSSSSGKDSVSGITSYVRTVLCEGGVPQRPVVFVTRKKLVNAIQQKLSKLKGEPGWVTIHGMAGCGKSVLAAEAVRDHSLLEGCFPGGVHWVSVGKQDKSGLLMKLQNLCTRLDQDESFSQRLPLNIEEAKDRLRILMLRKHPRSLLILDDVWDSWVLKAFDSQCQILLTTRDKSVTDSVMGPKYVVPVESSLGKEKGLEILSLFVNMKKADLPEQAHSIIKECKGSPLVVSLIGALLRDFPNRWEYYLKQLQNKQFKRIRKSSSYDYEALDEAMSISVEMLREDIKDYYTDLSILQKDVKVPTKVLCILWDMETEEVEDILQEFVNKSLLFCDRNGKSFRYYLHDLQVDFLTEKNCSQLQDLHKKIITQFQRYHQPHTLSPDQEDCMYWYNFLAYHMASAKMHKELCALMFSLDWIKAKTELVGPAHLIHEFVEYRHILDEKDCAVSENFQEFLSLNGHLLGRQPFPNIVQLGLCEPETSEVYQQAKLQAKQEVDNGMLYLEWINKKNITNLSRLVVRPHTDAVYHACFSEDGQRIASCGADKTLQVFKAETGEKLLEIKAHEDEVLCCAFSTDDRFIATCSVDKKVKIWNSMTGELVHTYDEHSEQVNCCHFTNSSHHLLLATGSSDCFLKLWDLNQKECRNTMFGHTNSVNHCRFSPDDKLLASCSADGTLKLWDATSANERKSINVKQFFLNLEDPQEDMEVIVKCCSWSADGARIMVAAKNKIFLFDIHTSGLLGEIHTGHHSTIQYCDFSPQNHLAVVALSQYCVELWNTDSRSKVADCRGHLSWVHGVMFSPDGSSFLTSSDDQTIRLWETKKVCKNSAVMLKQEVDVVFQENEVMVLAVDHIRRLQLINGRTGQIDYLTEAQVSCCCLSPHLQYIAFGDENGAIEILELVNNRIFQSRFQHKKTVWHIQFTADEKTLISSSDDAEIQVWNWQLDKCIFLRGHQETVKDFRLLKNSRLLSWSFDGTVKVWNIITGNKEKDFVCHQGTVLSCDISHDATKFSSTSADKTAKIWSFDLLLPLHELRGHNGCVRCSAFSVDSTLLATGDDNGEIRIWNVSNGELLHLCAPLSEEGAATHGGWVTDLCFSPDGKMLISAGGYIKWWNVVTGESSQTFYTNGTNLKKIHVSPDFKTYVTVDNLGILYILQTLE

[3] = target: Luciferin 4-monooxygenase (Photinus pyralis, UniProt P08659); assay: firefly luciferase enzyme inhibitors, dose response, biochemical, luminescence (AID 1891)
Chain of Luciferin 4-monooxygenase (P08659 whole entry): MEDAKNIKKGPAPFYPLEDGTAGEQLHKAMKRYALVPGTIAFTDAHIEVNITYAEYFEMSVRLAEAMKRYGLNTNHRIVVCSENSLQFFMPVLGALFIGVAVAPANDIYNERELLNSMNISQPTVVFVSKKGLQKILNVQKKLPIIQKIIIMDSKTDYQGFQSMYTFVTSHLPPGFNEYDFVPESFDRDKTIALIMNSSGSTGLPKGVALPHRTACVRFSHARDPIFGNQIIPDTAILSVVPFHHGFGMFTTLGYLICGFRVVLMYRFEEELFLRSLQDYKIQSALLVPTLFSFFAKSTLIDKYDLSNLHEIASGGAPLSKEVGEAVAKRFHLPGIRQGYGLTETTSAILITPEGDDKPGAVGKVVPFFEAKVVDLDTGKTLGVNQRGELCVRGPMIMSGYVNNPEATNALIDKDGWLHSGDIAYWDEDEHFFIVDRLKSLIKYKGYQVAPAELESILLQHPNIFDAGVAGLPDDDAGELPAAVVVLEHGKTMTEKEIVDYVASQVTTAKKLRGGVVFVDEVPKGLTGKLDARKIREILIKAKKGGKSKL

[4] = target: 72 kDa type IV collagenase (Homo sapiens, UniProt P08253); assay: Dose Response validation of uHTS RPN11 inhibitor hits using a MMP-2 Fluorescence assay.; format: functional
Chain of 72 kDa type IV collagenase (P08253 whole entry): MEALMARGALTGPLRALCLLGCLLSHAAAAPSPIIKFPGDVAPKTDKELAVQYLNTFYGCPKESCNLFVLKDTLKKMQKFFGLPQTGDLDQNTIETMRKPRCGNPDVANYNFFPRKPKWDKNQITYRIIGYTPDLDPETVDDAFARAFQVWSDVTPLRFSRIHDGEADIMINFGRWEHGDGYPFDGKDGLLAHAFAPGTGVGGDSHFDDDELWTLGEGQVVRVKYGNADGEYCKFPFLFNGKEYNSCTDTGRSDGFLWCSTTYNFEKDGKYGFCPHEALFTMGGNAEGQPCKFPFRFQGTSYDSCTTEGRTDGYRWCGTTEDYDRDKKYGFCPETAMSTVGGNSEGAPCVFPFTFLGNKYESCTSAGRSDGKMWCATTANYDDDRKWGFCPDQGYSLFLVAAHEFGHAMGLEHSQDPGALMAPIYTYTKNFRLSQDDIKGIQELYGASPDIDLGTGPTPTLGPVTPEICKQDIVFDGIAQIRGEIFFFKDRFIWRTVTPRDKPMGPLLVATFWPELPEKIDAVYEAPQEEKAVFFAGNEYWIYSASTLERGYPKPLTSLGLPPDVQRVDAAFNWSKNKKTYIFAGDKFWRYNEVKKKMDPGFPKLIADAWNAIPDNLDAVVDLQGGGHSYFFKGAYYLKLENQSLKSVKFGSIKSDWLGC

[5] = Luminescence Cell-Based Dose Confirmation HTS to Identify Inhibitors of Platelet Dense Granule Release. [Related pubchem assays: 1663 (Primary HTS), 1678 (Summary of Project)]; format: functional
[6] = target: 26S proteasome non-ATPase regulatory subunit 14 (Homo sapiens, UniProt O00487); assay: inhibition of proteasome subunit RPN11 – biochemical, fluorescence polarization, uHTS hits, confirmation (AID 602368); format: functional
Chain of 26S proteasome non-ATPase regulatory subunit 14 (O00487 whole entry): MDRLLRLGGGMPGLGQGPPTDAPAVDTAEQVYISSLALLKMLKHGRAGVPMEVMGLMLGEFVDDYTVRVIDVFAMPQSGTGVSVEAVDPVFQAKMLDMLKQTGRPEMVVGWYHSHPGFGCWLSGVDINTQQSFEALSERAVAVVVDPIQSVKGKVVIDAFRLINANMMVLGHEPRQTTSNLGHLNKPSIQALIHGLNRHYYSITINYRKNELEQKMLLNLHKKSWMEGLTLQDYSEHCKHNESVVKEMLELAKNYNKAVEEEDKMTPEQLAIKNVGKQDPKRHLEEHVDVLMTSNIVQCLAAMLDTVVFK

Prothrombin = Prothrombin (Bos taurus, UniProt P00735); assay: thrombin inhibition, dose response, biochemical, fluorescence polarization, uHTS hits (AID 602369); format: functional
Genome polyprotein = Genome polyprotein (dengue virus type 2, UniProt P29990); assay: Dengue-2 NS5 methyltransferase inhibitors, primary screen, biochemical, confirmation dose response (AID 588689); format: functional
Chain of Genome polyprotein (P29990 2492-3391 limits assumed): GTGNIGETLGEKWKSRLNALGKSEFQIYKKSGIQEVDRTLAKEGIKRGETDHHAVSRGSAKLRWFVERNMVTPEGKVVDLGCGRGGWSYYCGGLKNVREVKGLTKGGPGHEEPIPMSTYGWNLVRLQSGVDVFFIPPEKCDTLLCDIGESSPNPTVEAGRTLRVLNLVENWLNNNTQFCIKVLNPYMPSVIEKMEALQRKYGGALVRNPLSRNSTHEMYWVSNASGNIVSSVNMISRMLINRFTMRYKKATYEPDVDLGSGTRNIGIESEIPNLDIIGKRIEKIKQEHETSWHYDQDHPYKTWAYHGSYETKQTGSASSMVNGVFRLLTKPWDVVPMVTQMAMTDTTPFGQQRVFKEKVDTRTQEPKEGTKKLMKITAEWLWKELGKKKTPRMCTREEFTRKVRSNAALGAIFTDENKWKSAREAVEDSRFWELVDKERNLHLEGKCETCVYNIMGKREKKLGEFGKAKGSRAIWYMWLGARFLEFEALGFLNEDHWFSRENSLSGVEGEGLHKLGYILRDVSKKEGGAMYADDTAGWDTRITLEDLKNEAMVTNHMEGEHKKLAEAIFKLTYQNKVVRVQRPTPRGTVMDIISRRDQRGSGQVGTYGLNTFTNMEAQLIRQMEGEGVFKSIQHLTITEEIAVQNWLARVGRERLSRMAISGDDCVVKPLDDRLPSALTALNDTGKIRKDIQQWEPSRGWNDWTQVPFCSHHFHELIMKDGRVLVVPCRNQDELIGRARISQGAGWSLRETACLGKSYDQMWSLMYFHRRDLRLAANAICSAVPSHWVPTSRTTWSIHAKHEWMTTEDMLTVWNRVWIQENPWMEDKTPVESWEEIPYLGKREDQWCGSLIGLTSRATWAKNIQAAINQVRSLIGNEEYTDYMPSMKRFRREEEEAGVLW

[7] = test system: Streptococcus sp. 'group A'; assay: growth inhibition of control SK(-) GAS strain, dose response, counter-screen for streptokinase expression inhibitor project, luminescence, kanamycin, BacTiterGlo, confirmation (AID 1900); format: functional, organism-based
Streptococcus = assay: Group A Streptococcus viability loss, dose response, counter-screen for streptokinase expression inhibitor project, luminescence, BacTiterGlo (AID 1915); format: functional, organism-based;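 further: potency for reduction of bacterial viability or growth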
Streptokinase A = target: T2, Streptokinase A (Streptococcus pyogenes serotype M1, UniProt P10520); assay: S. pyogenes streptokinase expression inhibitors, potency, dose response, plasminogen activation absorbance, OD405 (AID 1914); format: functional, Streptococcus pyogenes M1 GAS;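 further: secreted streptokinase activity via plasminogen activation per viability signal from cell pellet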
T2 sequence (P10520 whole entry): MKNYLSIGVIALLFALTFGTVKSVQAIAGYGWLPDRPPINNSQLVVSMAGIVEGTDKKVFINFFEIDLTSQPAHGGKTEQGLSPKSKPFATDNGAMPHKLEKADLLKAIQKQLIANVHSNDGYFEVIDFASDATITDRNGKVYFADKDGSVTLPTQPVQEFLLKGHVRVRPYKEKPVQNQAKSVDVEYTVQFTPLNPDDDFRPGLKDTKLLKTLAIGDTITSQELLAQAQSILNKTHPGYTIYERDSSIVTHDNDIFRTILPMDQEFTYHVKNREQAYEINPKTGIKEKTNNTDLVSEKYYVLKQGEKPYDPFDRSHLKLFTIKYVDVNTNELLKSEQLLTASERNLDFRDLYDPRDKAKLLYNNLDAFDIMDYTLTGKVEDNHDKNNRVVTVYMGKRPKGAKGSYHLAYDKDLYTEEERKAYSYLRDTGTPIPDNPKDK

Chain of DNA (cytosine-5)-methyltransferase 1 (P26358 whole entry): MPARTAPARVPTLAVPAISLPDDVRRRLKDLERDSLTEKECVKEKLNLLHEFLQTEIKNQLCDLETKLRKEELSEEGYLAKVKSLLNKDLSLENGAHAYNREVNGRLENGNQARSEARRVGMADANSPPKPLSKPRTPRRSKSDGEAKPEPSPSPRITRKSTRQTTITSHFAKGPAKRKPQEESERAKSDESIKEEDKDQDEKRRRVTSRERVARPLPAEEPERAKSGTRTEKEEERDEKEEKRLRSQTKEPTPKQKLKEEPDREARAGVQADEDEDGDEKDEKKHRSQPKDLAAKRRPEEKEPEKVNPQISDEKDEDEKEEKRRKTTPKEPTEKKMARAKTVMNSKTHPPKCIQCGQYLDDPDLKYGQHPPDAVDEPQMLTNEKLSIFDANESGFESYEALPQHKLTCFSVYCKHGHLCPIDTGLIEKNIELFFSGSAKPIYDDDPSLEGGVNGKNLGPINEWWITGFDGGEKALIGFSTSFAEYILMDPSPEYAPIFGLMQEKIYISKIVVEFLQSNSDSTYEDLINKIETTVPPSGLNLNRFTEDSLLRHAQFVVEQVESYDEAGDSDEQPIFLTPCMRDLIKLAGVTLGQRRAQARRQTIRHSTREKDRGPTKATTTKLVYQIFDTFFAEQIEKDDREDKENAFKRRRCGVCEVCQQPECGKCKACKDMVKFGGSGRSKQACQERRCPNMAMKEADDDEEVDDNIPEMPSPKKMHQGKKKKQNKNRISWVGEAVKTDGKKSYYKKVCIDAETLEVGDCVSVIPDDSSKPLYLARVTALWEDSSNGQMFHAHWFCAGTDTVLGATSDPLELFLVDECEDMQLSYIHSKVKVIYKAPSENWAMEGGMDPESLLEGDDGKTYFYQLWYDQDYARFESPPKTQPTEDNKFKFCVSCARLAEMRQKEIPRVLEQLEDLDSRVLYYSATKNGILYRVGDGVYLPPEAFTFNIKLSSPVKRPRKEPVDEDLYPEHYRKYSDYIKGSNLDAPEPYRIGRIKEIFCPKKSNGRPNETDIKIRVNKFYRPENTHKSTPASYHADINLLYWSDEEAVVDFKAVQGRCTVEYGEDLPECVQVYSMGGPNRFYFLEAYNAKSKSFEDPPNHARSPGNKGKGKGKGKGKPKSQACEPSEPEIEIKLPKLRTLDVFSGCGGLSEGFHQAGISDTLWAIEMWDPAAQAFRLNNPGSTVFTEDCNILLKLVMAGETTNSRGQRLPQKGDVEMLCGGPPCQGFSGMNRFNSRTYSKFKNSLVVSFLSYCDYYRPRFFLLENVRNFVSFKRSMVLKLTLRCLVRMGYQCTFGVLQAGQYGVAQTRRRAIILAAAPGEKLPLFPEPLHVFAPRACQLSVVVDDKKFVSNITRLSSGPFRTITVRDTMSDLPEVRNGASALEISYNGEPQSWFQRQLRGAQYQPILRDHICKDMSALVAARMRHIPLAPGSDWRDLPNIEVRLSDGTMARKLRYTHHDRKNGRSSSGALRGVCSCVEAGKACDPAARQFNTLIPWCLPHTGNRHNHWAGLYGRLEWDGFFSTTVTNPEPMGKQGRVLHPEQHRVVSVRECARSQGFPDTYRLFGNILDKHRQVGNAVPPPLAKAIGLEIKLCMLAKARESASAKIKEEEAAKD

O=C(CNC(=O)c1ccc([N+](=O)[O-])cc1)N/N=C\c1ccc(OC(=O)c2ccccc2)cc1
IC50 [1]: > 99 µM (inactive)

Cc1ccc(OCC(=O)N(Cc2nnc(-c3ccccc3Cl)o2)C2CC2)cc1C
IC50 [2]: 31.9 µM (active)

COC(=O)c1c(-c2cccnc2)csc1NC(=O)c1ccc2c(c1)OCO2
EC50 [3]: 0.77 µM (active) | IC50 [4]: > 100 µM (inactive) | EC50 [5]: 8.11 µM (active) | IC50 [6]: 37.5 µM (active) | IC50 (Prothrombin): 96.1 µM (active)

O=C(O)CN1C(=O)/C(=C\c2cc(Br)ccc2OCc2ccccc2Cl)SC1=S
IC50 (Genome polyprotein): 24.3 µM (active) | EC50 [7]: 1.97 µM (active) | EC50 (Streptococcus): 5.9 µM (active) | IC50 [1]: 4.7 µM (active) | EC50 (Streptokinase A): > 150 µM (not active)
